Structures are written as SMILES.

In experiment [1] the target is T1, mutant BKCa channel (G803D/N806K) (Rattus norvegicus, UniProt Q62976, G803D/N806K).
T1 construct: expressed in transfected cells
The experiment is described as follows: Cell-based TI+ fluorescence (FluxOR) assay in AD-293 cells. On the procedure: AD-293 cells (Lee et al., 2013), as a modified HEK293 cell for expressing a mutant BKCa channel, were placed in DMEM (Dulbecco's Modified Eagle's medium) supplemented with 10% fetal bovine serum and 1 mg/ml geneticin (Gibco) as an antibiotic. The cells were cultured under a humidified condition of 5% CO2 and 37° C.
AD-293 cells stably expressing the mutant BKCa channel (G803D/N806K) were used for cell-based assays (Lee et al., 2013). Approximately 20,000 cells/well were inoculated on a black-wall assay plate (Corning Incorporated) coated with poly-D-lysine (Sigma-Aldrich), which is 96-well clear-bottom. A FluxOR™ […] (Invitrogen) was used for initial screening of compound libraries, and for further assay of candidate compounds. Experiments were performed according to the manufacturer's following guidelines: growth medium was replaced with 80 μl/well of loading buffer containing FluxOR™ fluorescent dye, and incubation was carried out for 1 hour under a light-free condition. After the incubation, the loading buffer was replaced with 100 μl/well of assay buffer containing various concentrations of compounds of interest, followed by incubation for 20 minutes to 30 minutes. DMSO (1%) was vehicle and the vehicle was used for all test compounds. CTBIC (Cormemis et al. 2005; Lee et al. 2012), previously identified as an activator of the BKCa channel, was used as a positive control. For fluorescence measurements, synergy TM H1 hybrid multi-mode microplate reader (BioTek Instrument Inc., Winnoski, Vt.) and Cen5 software was used in initial screening. For additional assays, Flexstation 3 multi-mode microplate reader (Molecular Devices) and SoftMax®Pro software were used, respectively. A fluorescence signal was obtained at an excitation wavelength of 485 nm and an emission wavelength of 528 nm. Membrane polarization was induced by a stimulus buffer containing thallium ion. The fluorescence signal was measured under two conditions: every 10 seconds for 2 minutes before treating the stimulation buffer and then every 10 seconds for 3 minutes after addition of stimulation buffer for synergy H1, and every 2 seconds for 20 seconds before stimulus buffer treatment, and then every 2 seconds for 160 seconds after adding the stimulus buffer for FlexStation 3.
A fluorescence signal change was measured based on a relative fluorescence unit (RFU) or F/F0 where F0 is ta minimum fluorescence value of each fluorescence trace. To quantitatively compare activation effects of kurarinone and its derivatives, an initial fluorescence increase was calculated using first three points after treatment with the stimulation buffer, and a linear slope was predicted using OriginPro 9.1 (OriginLab Corp., Northampton, Mass.).

A further experiment deals with rat bladder strips. Description: Isometric tension recording of bladder smooth muscle strips (ACh-induced contraction). The conditions noted are these: 100 μM, 30 min pre-incubation, 1 μM ACh, compared to vehicle, n=6. As to the method:
[…] tension recording of UBSM experiment was performed by a known method (Dela Pena et al. 2009; Kullmann et al. 2014). In short, a male Sprague-Dawley rat (300-350 g) was euthanized by CO2 choking. Then, the bladder of the rat was excised. The bladder was longitudinally divided into four strips (approximately 2×8 mm). Each separated strip was clipped between a static mount and a force-displacement transducer. Then, the clipped strips were suspended in a temperature-controlled (37° C.) organ bath containing 10 ml of Krebs solution ((mM): 118.4 NaCl, 4.7 KCl, 1.2 KH2PO4, 1.2 MgSO4, 25.0 NaHCO3, 2.5 CaCl2, and 12.2 glucose; pH 7.35-7.40). Then, a mixture of 95% 02 and 5% CO2 was used to continuously generate bubbles in the organ bath. Each UBSM strip was stretched to 1.0 gram of an optimal isometric tension, and was equilibrated for 60 minutes. […] After reaching the equilibration, the strips were stabilized via repeated application of acetylcholine (1 μM) until a continuous reaction was recorded. […] Relaxation was expressed as a percentage reduction in the tension due to acetylcholine-induced contraction. […] Changes in the isometric tension were recorded using a Power Lab Data Acquisition System (ADInstruments) associated with a computer with Lab Chart Software (Version 7, AD Instruments) installed therein. […]

T1 sequence (Q62976 whole entry G803D/N806K): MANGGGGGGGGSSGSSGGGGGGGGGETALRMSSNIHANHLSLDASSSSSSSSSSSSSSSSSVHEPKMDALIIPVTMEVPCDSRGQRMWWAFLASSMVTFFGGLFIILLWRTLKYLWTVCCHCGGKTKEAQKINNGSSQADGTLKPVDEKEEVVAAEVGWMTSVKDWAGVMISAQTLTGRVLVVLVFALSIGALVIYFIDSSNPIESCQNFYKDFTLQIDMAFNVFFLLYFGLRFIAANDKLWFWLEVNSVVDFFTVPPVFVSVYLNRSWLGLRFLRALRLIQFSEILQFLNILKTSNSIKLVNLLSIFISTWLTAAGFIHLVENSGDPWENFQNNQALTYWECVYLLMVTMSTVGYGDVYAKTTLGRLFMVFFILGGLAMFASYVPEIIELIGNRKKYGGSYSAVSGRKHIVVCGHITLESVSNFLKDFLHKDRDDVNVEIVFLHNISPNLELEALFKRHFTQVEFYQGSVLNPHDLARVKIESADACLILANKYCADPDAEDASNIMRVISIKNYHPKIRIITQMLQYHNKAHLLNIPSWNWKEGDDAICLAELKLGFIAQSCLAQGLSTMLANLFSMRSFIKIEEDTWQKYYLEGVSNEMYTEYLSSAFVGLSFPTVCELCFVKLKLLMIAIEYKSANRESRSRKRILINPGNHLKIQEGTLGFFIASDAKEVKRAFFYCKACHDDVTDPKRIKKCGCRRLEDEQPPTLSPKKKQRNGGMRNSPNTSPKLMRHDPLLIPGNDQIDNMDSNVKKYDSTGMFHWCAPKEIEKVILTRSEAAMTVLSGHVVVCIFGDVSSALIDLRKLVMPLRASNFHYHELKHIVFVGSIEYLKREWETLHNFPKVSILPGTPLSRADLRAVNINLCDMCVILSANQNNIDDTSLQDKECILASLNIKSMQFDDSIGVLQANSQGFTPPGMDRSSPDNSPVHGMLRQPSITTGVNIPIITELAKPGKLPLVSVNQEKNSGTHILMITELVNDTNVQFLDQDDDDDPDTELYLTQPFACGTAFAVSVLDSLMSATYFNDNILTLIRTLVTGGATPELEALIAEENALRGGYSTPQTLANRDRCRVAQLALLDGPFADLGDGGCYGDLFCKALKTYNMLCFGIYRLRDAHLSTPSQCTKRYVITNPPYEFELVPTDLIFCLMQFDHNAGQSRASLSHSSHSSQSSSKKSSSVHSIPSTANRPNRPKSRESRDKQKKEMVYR

Consider `C=C(C)[C@H](CC=C(C)C)Cc1c(O)cc(OC)c2c1O[C@H](c1ccc(O)cc1O)CC2=O` [kurarinone], for which the “TI+ fluorescence increase in library screening” value in experiment [1] (5 μM final concentration, compared to vehicle (1% DMSO), among 794 natural compounds) is reported as “strongest fluorescence increase”. The “TI+-fluorescence enhancement (initial RFU increase)” value in experiment [1] (10 μM, n=4) is given as “strong fluorescence increase”. Moreover, the “concentration dependence of TI+ fluorescence” value in experiment [1] (3, 5, 10, 30 μM) is “increased in a dose-dependent manner”. The “relaxation effect on ACh-induced contraction” value with rat bladder strips was found to be 58.2±6.2%.

These data come from patent US11517556B2, “Composition for BKCa channel activation” (GWANGJU INSTITUTE OF SCIENCE AND TECHNOLOGY, priority 2016, dated 2022).
